Test results taken from patent US20240116832A1, “INHIBITORS OF SOIL NITRIFICATION AND PROCESSES TO PREVENT SAME” (Tessenderlo Group NV, priority 2019, published 2024).

Tested on: soil nitrification: conversion of ammonium-N(NH4+) into nitrate-N(NO3−), Tujunga loamy sand
Details: for nitrification inhibition (slowing the conversion of ammonium-N into nitrate-N), in words: text on Experiments 1 and 2
Excerpt: Two soils were used in this experiment, a Tujunga loamy sand (thermic Typic Xeropsamments) collected in Dinuba, California along with a Clarion fine loam (mesic Typic Hapludolls), collected in Boone, Iowa.
Each soil was collected by hand from the top 15 mm of the soil profile and allowed to air-dry. Both soils were hand screened to remove large clumps and rocks that may have interfered with the experiment. Soil samples were taken before the start of the experiment and analyzed to assess the initial nutrient content and pH of the soil.
The experiments were made up of numerous individual plastic containers that each represented one (1) replicate of each fertilizer treatment and soil. All experiments were arranged as a completely randomized design consisting of 12-20 fertilizer treatments, two soils, with six replicates.
To begin the experiment, 200 g of the dried and screened soil was added to a 709 mL sealable plastic container. Distilled water was added to each container to bring the moisture level up to what would be considered optimal field moisture. It was important to determine this for each soil separately to ensure neither soil was too dry or too moist. This volume ranged from 15-25 ml per container with the Clarion soil being the highest. Once the appropriate amount of water was applied to each container, they were thoroughly stirred to ensure uniform mixing and to eliminate any clumps.
After the soil containers were filled and moistened, the individual liquid fertilizer treatments were prepared in a 100 ml Erlenmeyer flask. All treatments were applied as liquids to ensure uniform mixing and accurate applications. For some of the treatments a 20%-N urea solution was used as the primary nitrogen source. […]
All fertilizer treatments were made to the soil surface in each container using a micropipette at a nitrogen rate of 134.7 kg ha^−1 calculated on the surface area of each container which equals 125.8 cm^2. […]
Soil samples were initially taken at one (1) day after treatment (DAT). […] The difference in mass is recorded and used in later calculations. […]

## N.N.O=S(=O)(O)O [ammonium sulfates, ammonium sulfate]
  nitrification inhibition (slowing the conversion of ammonium-N into nitrate-N), in words: did not work

## O=S([O-])O.[K+] [potassium bisulfite]
  nitrification inhibition (slowing the conversion of ammonium-N into nitrate-N), in words: did not work

## NC(N)=O [unprotected urea, Urea]
After 8 weeks
  "nitrate levels" (nitrite+nitrate levels) in the soil: ≥ 300 ppm
